Reference: ChEMBL document CHEMBL3044907, “Sensitivity of Fusarium verticillioides isolates from rice to a novel cyanoacrylate fungicide” (Crop Prot, 2012)

Tests used:
[1] = system: Fusarium verticillioides; assay: (§1) Fungicidal activity against Fusarium verticilliodes isolate N01 in rice seeds harvested from bakane diseased plants assessed as number of seedlings abnormally elongated or exhibiting symptoms of damping-off at 6.25 ug/ml at 30 degC incubated for 72 hr measured after 3 days under greenhouse trials (reference value: 27.4%); type: functional
[2] = system: Fusarium verticillioides; assay: as §1, with “YZ11” for “N01”, “25” for “6.25”, “33.7%)” for “27.4%)”; type: functional
[3] = system: Fusarium verticillioides; assay: as §1, with “YZ05” for “N01”, “12.5” for “6.25”, “33.3%)” for “27.4%)”; type: functional
[4] = system: Fusarium verticillioides; assay: as §1, with “JS06” for “N01”, “25.2%)” for “27.4%)”; type: functional
[5] = system: Fusarium verticillioides; assay: as §1, with “N03” for “N01”, “25” for “6.25”, “36.1%)” for “27.4%)”; type: functional
[6] = system: Fusarium verticillioides; assay: as §1, with “JS08” for “N01”, “12.5” for “6.25”, “13.0%)” for “27.4%)”; type: functional
[7] = system: Fusarium verticillioides; assay: as §1, with “YZ08” for “N01”, “25” for “6.25”, “19.8%)” for “27.4%)”; type: functional
[8] = system: Fusarium verticillioides; assay: as §1, with “JS04” for “N01”, “8.33” for “6.25”, “16.2%)” for “27.4%)”; type: functional
[9] = system: Fusarium verticillioides; assay: as §1, with “YZ22” for “N01”, “12.5” for “6.25”, “22.5%)” for “27.4%)”; type: functional
[10] = system: Oryza sativa; assay: Effect on germination of healthy Oryza sativa (rice) seed cultivar Fengliangyou 4 at 6.25 to 25 ug/ml at 25 degC after 72 hr; type: ADME, organism-based; conditions: in vivo
[11] = system: Fusarium verticillioides; assay: as §1, with “YZ06” for “N01”, “45.3%)” for “27.4%)”; type: functional
[12] = system: Fusarium verticillioides; assay: as §1, with “N05” for “N01”, “6.2%)” for “27.4%)”; type: functional
[13] = system: Fusarium verticillioides; assay: as §1, with “YZ13” for “N01”, “12.5” for “6.25”, “26.8%)” for “27.4%)”; type: functional
[14] = system: Fusarium verticillioides; assay: as §1, with “JS08” for “N01”, “25” for “6.25”, “13.0%)” for “27.4%)”; type: functional
[15] = system: Fusarium verticillioides; assay: as §1, with “N05” for “N01”, “12.5” for “6.25”, “6.2%)” for “27.4%)”; type: functional
[16] = system: Fusarium verticillioides; assay: as §1, with “YZ01” for “N01”, “12.5” for “6.25”, “33.6%)” for “27.4%)”; type: functional
[17] = system: Fusarium verticillioides; assay: as §1, with “YZ22” for “N01”, “8.33” for “6.25”, “22.5%)” for “27.4%)”; type: functional
[18] = system: Fusarium verticillioides; assay: as §1, with “YZ11” for “N01”, “33.7%)” for “27.4%)”; type: functional
[19] = system: Fusarium verticillioides; assay: as §1, with “8.33” for “6.25”; type: functional
[20] = system: Fusarium verticillioides; assay: as §1, with “JS04” for “N01”, “25” for “6.25”, “16.2%)” for “27.4%)”; type: functional
[21] = system: Fusarium verticillioides; assay: as §1, with “YZ12” for “N01”, “8.33” for “6.25”, “45.8%)” for “27.4%)”; type: functional
[22] = system: Fusarium verticillioides; assay: as §1, with “JS05” for “N01”, “25” for “6.25”, “36.4%)” for “27.4%)”; type: functional
[23] = system: Fusarium verticillioides; assay: as §1, with “YZ09” for “N01”, “17.5%)” for “27.4%)”; type: functional
[24] = system: Fusarium verticillioides; assay: as §1, with “YZ08” for “N01”, “8.33” for “6.25”, “19.8%)” for “27.4%)”; type: functional
[25] = system: Fusarium verticillioides; assay: as §1, with “YZ03” for “N01”, “25” for “6.25”, “21.3%)” for “27.4%)”; type: functional
[26] = system: Fusarium verticillioides; assay: as §1, with “YZ13” for “N01”, “25” for “6.25”, “26.8%)” for “27.4%)”; type: functional
[27] = system: Fusarium verticillioides; assay: as §1, with “YZ26” for “N01”, “49.3%)” for “27.4%)”; type: functional
[28] = system: Fusarium verticillioides; assay: as §1, with “YZ26” for “N01”, “25” for “6.25”, “49.3%)” for “27.4%)”; type: functional
[29] = system: Fusarium verticillioides; assay: as §1, with “YZ07” for “N01”, “43.2%)” for “27.4%)”; type: functional
[30] = system: Fusarium verticillioides; assay: as §1, with “YZ06” for “N01”, “8.33” for “6.25”, “45.3%)” for “27.4%)”; type: functional
[31] = system: Fusarium verticillioides; assay: as §1, with “YZ11” for “N01”, “8.33” for “6.25”, “33.7%)” for “27.4%)”; type: functional
[32] = system: Fusarium verticillioides; assay: as §1, with “YZ01” for “N01”, “33.6%)” for “27.4%)”; type: functional
[33] = system: Fusarium verticillioides; assay: as §1, with “YZ05” for “N01”, “8.33” for “6.25”, “33.3%)” for “27.4%)”; type: functional
[34] = system: Fusarium verticillioides; assay: as §1, with “YZ10” for “N01”, “49.2%)” for “27.4%)”; type: functional
[35] = system: Fusarium verticillioides; assay: as §1, with “25” for “6.25”; type: functional
[36] = system: Oryza sativa; assay: Effect on emergence of healthy Oryza sativa (rice) seedlings measured after seeds germinated; type: ADME, organism-based; conditions: in vivo
[37] = system: Fusarium verticillioides; assay: as §1, with “YZ12” for “N01”, “12.5” for “6.25”, “45.8%)” for “27.4%)”; type: functional

`CCOC(=O)/C(C#N)=C(/N)c1ccccc1` showed an Activity [1] of 0.8%, an Activity [2] of 0% and an Activity [3] of 0%. It also gave an Activity [4] of 1.7%, an Activity [5] of 0% and an Activity [6] of 0%. For the same compound, the Activity [7] was 0%, the Activity [8] was 1% and the Activity [9] was 0.5%. For the same compound, the Activity [10] was “Non-toxic”, the Activity [11] was 1% and the Activity [12] was 0.4%. For the same compound, the Activity [13] was 0%, the Activity [14] was 0% and the Activity [15] was 0%. It also gave an Activity [16] of 0%, an Activity [17] of 0.5% and an Activity [18] of 4.5%. The Activity [19] was 0%, the Activity [20] was 0% and the Activity [21] was 1.4%. For the same compound, the Activity [22] was 0%, the Activity [23] was 2.8% and the Activity [24] was 0%. It also gave an Activity [25] of 0%, an Activity [26] of 0% and an Activity [27] of 4.1%. For the same compound, the Activity [28] was 0.2%, the Activity [29] was 1.6% and the Activity [30] was 0%. The Activity [31] was 0.8%, the Activity [32] was 3.7% and the Activity [33] was 0%. For the same compound, the Activity [34] was 3.8%, the Activity [35] was 0% and the Activity [36] was “Non-toxic”. For the same compound, the Activity [37] was 0%.
